*1 amine or outer side, *2 acyl side, *3 side chain or, on linkers, in order; H or OH if unused. Where a SMILES comes first, the peptide text is derived from it. Bridges are numbered along the chain shown (N, C = ends). [ ]: non-standard residue; d: D form. The star is where a group is joined. NMeNva(5-imidazol-1-yl) = CN[C@@H](CCCn1ccnc1)C(=O)O; X18 = CNC(=N)N(C)c1ccc(C[C@H](N[*:1])C(=O)[*:2])cc1; Ala(pyrimidin-5-yl) = N[C@@H](Cc1cncnc1)C(=O)O; NMe3Pal(6-Me) = CN[C@@H](Cc1ccc(C)nc1)C(=O)O; X25 = O=C([C@H](Cc1ccc(F)nc1)N[*:1])[*:2]; Ethyl(2-pyrrolidin-1-yl) = C1CCN(CC*)C1; X30 = O=C([C@H](Cc1ncccc1F)N[*:1])[*:2]; NMeAha = CN[C@@H](CCN=[N+]=[N-])C(=O)O; Phe(4-Me) = Cc1ccc(C[C@H](N)C(=O)O)cc1; X2 = O=C([C@H](Cc1ccccc1F)O[*:1])[*:2]; X35 = CN([C@@H](CCCF)C(=O)[*:2])[*:1]; Ala(cPent) = N[C@@H](CC1CCCC1)C(=O)O; Phe(2-F) = N[C@@H](Cc1ccccc1F)C(=O)O; X31 = O=C([C@H](CCC1CC1)N[*:1])[*:2]; Abu(4,4-F2) = N[C@@H](CC(F)F)C(=O)O; NMe3Pal = CN[C@@H](Cc1cccnc1)C(=O)O; X1 = O=C(C12CC(CN[*:1])(C1)C2)[*:2]; X17 = O=C([C@H](CCCCF)N[*:1])[*:2]; X41 = COCCC[C@H](N[*:1])C(=O)[*:2]; NMeOrn(Me) = CNCCC[C@H](NC)C(=O)O; Ala(cPr) = N[C@@H](CC1CC1)C(=O)O; NMeF = CN[C@@H](Cc1ccccc1)C(=O)O; PhLac = O=C(O)[C@@H](O)Cc1ccccc1; X9 = CCCC[C@H](O[*:1])C(=O)[*:2]; 3Pal = N[C@@H](Cc1cccnc1)C(=O)O; Ahp(2) = CCCCC[C@H](N)C(=O)O; Cba = N[C@@H](CC1CCC1)C(=O)O; hLeu = CC(C)CC[C@H](N)C(=O)O; NMeS = CN[C@@H](CO)C(=O)O; αMeC = C[C@](N)(CS)C(=O)O; NMeA = CN[C@@H](C)C(=O)O; Nle = CCCC[C@H](N)C(=O)O; Nva = CCC[C@H](N)C(=O)O
These compounds were tested against phosphorylation levels of ERK1/2 in AsPC-1 (homozygous KRAS-G12D) cells (Homo sapiens, UniProt P01116, G12D) (assay: Cellular phospho-ERK assay in AsPC-1 cells (Alpha Screen), assay medium without fetal bovine serum). Details: phospho-ERK AlphaScreen, 18 h.
Sequence of phosphorylation levels of ERK1/2 in AsPC-1 (homozygous KRAS-G12D) cells (P01116 1-186 G12D): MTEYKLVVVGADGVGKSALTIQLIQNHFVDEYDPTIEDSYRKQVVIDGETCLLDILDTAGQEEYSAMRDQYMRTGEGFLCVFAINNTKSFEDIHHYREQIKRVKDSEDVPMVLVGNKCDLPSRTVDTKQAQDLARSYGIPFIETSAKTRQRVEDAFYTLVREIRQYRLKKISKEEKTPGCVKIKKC
Type: cell-based
`CCCCC[C@@H]1NC(=O)[C@H](Cc2ccc(OC)cc2)NC(=O)[C@H](CC2CCC2)NC(=O)[C@H](Cc2ccc(N(C)C(=N)NC)cc2)NC(=O)[C@H](CCCNC)N(C)C(=O)[C@H](Cc2ccccc2)NC(=O)CSC[C@@](C)(C(N)=O)NC(=O)[C@H](Cc2ccc(C)nc2)N(C)C1=O` [compound 395, cyclo(F-NMeOmMe-Phe4GnMeMe-cBuA-TyrOMe-Ahp-NMe3Pal4Me-aMeCl-ClAc)] ({CH2CO}-F[NMeOrn(Me)][X18][Cba]Y(Me)[Ahp(2)][NMe3Pal(6-Me)][αMeC]-NH2; thioether N-8) gave an EC50 of over 50.8 µM. `CCCC[C@@H]1NC(=O)[C@H](Cc2ccc(F)nc2)NC(=O)[C@H](C)N(C)C(=O)[C@H](Cc2ccccc2)OC(=O)C23CC(CNC(=O)[C@H](Cc4ccccc4)N(C)C(=O)[C@H](CCC)NC(=O)[C@H](Cc4ccccc4F)NC1=O)(C2)C3` [compound 234, cyclo(FLac-NMeA-4F3Pal-Nle-Phe2F-Nva-NMeF-amBCP)] (cyclo([NMeA][X25][Nle][Phe(2-F)][Nva][NMeF][X1][PhLac])) showed an EC50 of over 50.8 µM. `CCCCC[C@@H]1NC(=O)[C@H](Cc2ccc(OC)cc2)NC(=O)[C@H](CC2CCC2)NC(=O)[C@H](Cc2ccc(OCCN3CCCC3)cc2)NC(=O)[C@H](CCCNC(=N)N)NC(=O)[C@H](Cc2ccccc2)NC(=O)CSC[C@@](C)(C(N)=O)NC(=O)[C@H](Cc2ccccc2)N(C)C1=O` [compound 383, cyclo(F-R-TyrOEtPyr-cBuA-TyrOMe-Ahp-NMeF-aMeCl-ClAc)] ({CH2CO}-FRY(Ethyl(2-pyrrolidin-1-yl))[Cba]Y(Me)[Ahp(2)][NMeF][αMeC]-NH2; thioether N-8) gave an EC50 of over 50.8 µM. Compound `CCCC[C@@H]1NC(=O)[C@H](Cc2cccnc2)NC(=O)[C@H](COC)N(C)C(=O)[C@H](Cc2ccccc2)OC(=O)C23CC(CNC(=O)[C@H](Cc4cccnc4)N(C)C(=O)[C@H](CCCC)NC(=O)[C@H](Cc4ccccc4F)NC1=O)(C2)C3` [compound 255, cyclo(FLac-nMeSMe-3Pal-Nle-Phe2F-Nle-NMe3Pal-amBCP)] (cyclo([3Pal][Nle][Phe(2-F)][Nle][NMe3Pal][X1][PhLac][NMeS](Me))) has an EC50 of over 50.8 µM. Work on `C[C@H]1C(=O)N[C@@H](Cc2cncnc2)C(=O)N[C@@H](CC2CC2)C(=O)N[C@@H](Cc2ccccc2F)C(=O)N[C@@H](CCC2CC2)C(=O)N(C)[C@@H](Cc2ccccc2)C(=O)NCC23CC(C2)(C3)C(=O)O[C@@H](Cc2ccccc2)C(=O)N1C` [compound 114, cyclo(FLac-NMeA-PyrimAla-cPrA-Phe2F-hcPrA-NMeF-amBCP)] (cyclo([Ala(cPr)][Phe(2-F)][X31][NMeF][X1][PhLac][NMeA][Ala(pyrimidin-5-yl)])) yielded an EC50 of 0.615 µM. For `CCCC[C@@H]1NC(=O)[C@H](Cc2cncnc2)NC(=O)[C@H](CCCn2ccnc2)N(C)C(=O)[C@H](Cc2ccccc2)OC(=O)C23CC(CNC(=O)[C@H](Cc4ccccc4)N(C)C(=O)[C@H](CCCC)NC(=O)[C@H](Cc4ccccc4F)NC1=O)(C2)C3` (single isomer, unassigned) [compound 222, cyclo(FLac-NMeNvalmid-PyrimAla-Nle-Phe2F-Nle-NMeF-amBCP)], the EC50 was over 50.8 µM. `C[C@H]1C(=O)N[C@@H](Cc2cncnc2)C(=O)N[C@@H](CC2CC2)C(=O)N[C@@H](Cc2ccccc2F)C(=O)N[C@@H](CC(F)F)C(=O)N(C)[C@@H](Cc2ccccc2)C(=O)NCC23CC(C2)(C3)C(=O)O[C@@H](Cc2ccccc2)C(=O)N1C` [compound 271, cyclo(FLac-NMeA-PyrimAla-cPrA-Phe2F-AbuF2-NMeF-amBCP)] (cyclo([Ala(cPr)][Phe(2-F)][Abu(4,4-F2)][NMeF][X1][PhLac][NMeA][Ala(pyrimidin-5-yl)])) showed an EC50 of 36.6 µM. For `CCCC[C@@H]1NC(=O)[C@H](Cc2cncnc2)NC(=O)[C@H](C)N(C)C(=O)[C@H](Cc2ccccc2)OC(=O)C23CC(CNC(=O)[C@H](Cc4ccccc4)N(C)C(=O)[C@H](CCC(C)C)NC(=O)[C@H](Cc4ccccc4F)NC1=O)(C2)C3` [compound 132, cyclo(FLac-NMeA-PyrimAla-Nle-Phe2F-hL-NMeF-amBCP)] (cyclo([NMeA][Ala(pyrimidin-5-yl)][Nle][Phe(2-F)][hLeu][NMeF][X1][PhLac])), the EC50 was 1.11 µM. `CCCC[C@@H]1NC(=O)[C@H](Cc2cncnc2)NC(=O)[C@H](CCCn2ccnc2)N(C)C(=O)[C@H](Cc2ccccc2)OC(=O)C23CC(CNC(=O)[C@H](Cc4ccccc4)N(C)C(=O)[C@H](CCCC)NC(=O)[C@H](Cc4ccccc4F)NC1=O)(C2)C3` (single isomer, unassigned) [compound 223, cyclo(FLac-NMeNvalmid-PyrimAla-Nle-Phe2F-Nle-NMeF-amBCP)] showed an EC50 of 11.1 µM. `CC(C)CC[C@@H]1NC(=O)[C@H](Cc2ccccc2F)NC(=O)[C@H](CC2CCCC2)NC(=O)[C@H](Cc2cncnc2)NC(=O)[C@H](C)N(C)C(=O)[C@H](Cc2ccccc2)OC(=O)C23CC(CNC(=O)[C@H](Cc4ccccc4)N(C)C1=O)(C2)C3` [compound 135, cyclo(FLac-NMcA-PyrimAla-cPeA-Phe2F-hL-NMeF-amBCP)] (cyclo([Ala(cPent)][Phe(2-F)][hLeu][NMeF][X1][PhLac][NMeA][Ala(pyrimidin-5-yl)])) gave an EC50 of 0.285 µM. With `CC(C)CC[C@@H]1NC(=O)[C@H](Cc2ccccc2F)NC(=O)[C@H](CC2CC2)NC(=O)[C@H](Cc2cncnc2)NC(=O)[C@H](CCCF)N(C)C(=O)[C@H](Cc2ccccc2)OC(=O)C23CC(CNC(=O)[C@H](Cc4ccccc4)N(C)C1=O)(C2)C3` [compound 216, cyclo(FLac-NMeNvaF-PyrimAla-cPrA-Phe2F-hL-NMeF-amBCP)] (cyclo([Ala(cPr)][Phe(2-F)][hLeu][NMeF][X1][PhLac][X35][Ala(pyrimidin-5-yl)])) the EC50 was 1.23 µM. `CCCC[C@@H]1NC(=O)[C@H](Cc2cccnc2)NC(=O)[C@H](C)N(C)C(=O)[C@H](Cc2ccc(C)cc2)NC(=O)C23CC(CNC(=O)[C@H](Cc4cccnc4)N(C)C(=O)[C@H](CCCC)NC(=O)[C@H](Cc4ccccc4F)NC1=O)(C2)C3` [compound 170, cyclo(Phe4Me-NMeA-3Pal-Nle-Phe2F-Nle-NMe3Pal-amBCP)] (cyclo([3Pal][Nle][Phe(2-F)][Nle][NMe3Pal][X1][Phe(4-Me)][NMeA])) was tested, and the EC50 was 37.2 µM. With `CCCC[C@@H]1NC(=O)[C@H](Cc2cccnc2)NC(=O)[C@H](C)N(C)C(=O)[C@H](Cc2ccccc2)NC(=O)CSC[C@@](C)(C(N)=O)NC(=O)[C@H](Cc2ccccc2)N(C)C(=O)[C@H](CCCC)NC(=O)[C@H](Cc2ccccc2F)NC1=O` [compound 159, cyclo(F-NMeA-3Pal-Nle-Phe2F-Nle-NMeF-aMeCl-ClAc)] ({CH2CO}-F[NMeA][3Pal][Nle][Phe(2-F)][Nle][NMeF][αMeC]-NH2; thioether N-8) the EC50 was 21 µM. Compound `CCCC[C@@H]1NC(=O)[C@H](Cc2ccccc2F)NC(=O)C(CC2CC(F)(F)C2)NC(=O)[C@H](Cc2cncnc2)NC(=O)[C@H](C)N(C)C(=O)[C@H](Cc2ccccc2)OC(=O)C23CC(CNC(=O)[C@H](Cc4cccnc4)N(C)C1=O)(C2)C3` (single isomer, unassigned) [compound 123, cyclo(FLac-NMeA-PyrimAla-rF2Cba-Phe2F-Nle-NMe3Pal-amBCP)] has an EC50 of over 50.8 µM. With `C[C@H]1C(=O)N[C@@H](Cc2cncnc2)C(=O)N[C@@H](CCCCF)C(=O)N[C@@H](Cc2ccccc2F)C(=O)N[C@@H](CCCCF)C(=O)N(C)[C@@H](Cc2ccccc2)C(=O)NCC23CC(C2)(C3)C(=O)O[C@@H](Cc2ccccc2)C(=O)N1C` [compound 128, cyclo(FLac-NMeA-PyrimAla-NleF-Phe2F-NleF-NMeF-amBCP)] (cyclo([NMeA][Ala(pyrimidin-5-yl)][X17][Phe(2-F)][X17][NMeF][X1][PhLac])) the EC50 was 3.72 µM. Compound `CCCC[C@@H]1NC(=O)[C@H](Cc2ccccc2F)NC(=O)[C@H](CCCC)OC(=O)[C@H](Cc2cccnc2)NC(=O)[C@H](CCN=[N+]=[N-])N(C)C(=O)[C@H](Cc2ccccc2)NC(=O)C23CC(CNC(=O)[C@H](Cc4cccnc4)N(C)C1=O)(C2)C3` [compound 250, cyclo(F-NMeDabN3-3Pal-NleLac-Phe2F-Nle-NMe3Pal-amBCP)] (cyclo(F[NMeAha][3Pal][X9][Phe(2-F)][Nle][NMe3Pal][X1])) has an EC50 of over 50.8 µM. `CCCC[C@@H]1NC(=O)[C@H](CCCOC)NC(=O)[C@H](CC2CCC2)NC(=O)[C@H](Cc2cccnc2)NC(=O)[C@H](CCCNC(=N)N)NC(=O)[C@H](Cc2ccccc2)NC(=O)CSC[C@@](C)(C(N)=O)NC(=O)[C@H](Cc2ccccc2)N(C)C1=O` [compound 55, cyclo(F-R-3Pal-cBuA-NvaOMe-Nle-NMeF-aMeCl-ClAc)] ({CH2CO}-FR[3Pal][Cba][X41][Nle][NMeF][αMeC]-NH2; thioether N-8) gave an EC50 of over 50.8 µM. Compound `CCCC[C@@H]1NC(=O)[C@H](Cc2cncnc2)NC(=O)[C@H](C)N(C)C(=O)[C@H](Cc2ccccc2)OC(=O)C23CC(CNC(=O)[C@H](Cc4ccccc4)N(C)C(=O)[C@H](CCCC)NC(=O)[C@H](Cc4ncccc4F)NC1=O)(C2)C3` [compound 229, cyclo(FLac-NMeA-PyrimAla-Nle-2Pal6F-Nle-NMeF-amBCP)] (cyclo([NMeA][Ala(pyrimidin-5-yl)][Nle][X30][Nle][NMeF][X1][PhLac])) has an EC50 of 48.7 µM. Compound `CCCC[C@@H]1NC(=O)[C@H](Cc2ccc(F)nc2)NC(=O)[C@H](C)N(C)C(=O)[C@H](Cc2ccccc2)OC(=O)C23CC(CNC(=O)[C@H](Cc4ccccc4)N(C)C(=O)[C@H](CCCC)NC(=O)[C@H](Cc4ccccc4F)NC1=O)(C2)C3` [compound 231, cyclo(FLac-NMeA-4F3Pal-Nle-Phe2F-Nle-NMeF-amBCP)] (cyclo([NMeA][X25][Nle][Phe(2-F)][Nle][NMeF][X1][PhLac])) has an EC50 of 0.589 µM. In the case of `CCCC[C@@H]1NC(=O)[C@H](Cc2cncnc2)NC(=O)[C@H](CCCn2ccnc2)N(C)C(=O)[C@H](Cc2ccccc2)OC(=O)C23CC(CNC(=O)[C@H](Cc4cccnc4)N(C)C(=O)[C@H](CCCC)NC(=O)[C@H](Cc4ccccc4F)OC1=O)(C2)C3` [compound 246, cyclo(FLac-NMeNvalmid-PyrimAla-Nle-F2FLac-Nle-NMe3Pal-amBCP)] (cyclo([NMe3Pal][X1][PhLac][NMeNva(5-imidazol-1-yl)][Ala(pyrimidin-5-yl)][Nle][X2][Nle])), the EC50 is reported as over 50.8 µM.

Reference: patent US20260001914A1, “MACROCYCLIC PEPTIDES TARGETING KRAS” (Merck Sharp & Dohme LLC, priority 2022, published 2026)
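Also: signal taken as phospho-ERK over total ERK per well, both detected in one multiplex bead assay, EC50 from four-parameter logistic fit of dose-response curves.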
